# Reference: publication PMC6721824, “IGFs Potentiate TAC3-induced SLα Expression via Upregulation of TACR3 Expression in Grass Carp Pituitary Cells” (Cells, 2019)
# Experiments:
# grass carp TACR3 = biological target: T1, grass carp TACR3 (Ctenopharyngodon idella, UniProt A0A075BDW2); experiment: Fluorescence-based receptor binding assay, displacement of FAM-NKBa tracer; set-up: species or system grass carp (Ctenopharyngodon idellus); conditions: HEK-293 cells with stable expression of grass carp TACR3, 30 min pretreatment with competitor, then FAM-NKBa (10 nM) 30 min, 37 °C; bound given in μM; read-out: IC50 for displacing FAM-NKBa binding
# T1 sequence (A0A075BDW2 1-395): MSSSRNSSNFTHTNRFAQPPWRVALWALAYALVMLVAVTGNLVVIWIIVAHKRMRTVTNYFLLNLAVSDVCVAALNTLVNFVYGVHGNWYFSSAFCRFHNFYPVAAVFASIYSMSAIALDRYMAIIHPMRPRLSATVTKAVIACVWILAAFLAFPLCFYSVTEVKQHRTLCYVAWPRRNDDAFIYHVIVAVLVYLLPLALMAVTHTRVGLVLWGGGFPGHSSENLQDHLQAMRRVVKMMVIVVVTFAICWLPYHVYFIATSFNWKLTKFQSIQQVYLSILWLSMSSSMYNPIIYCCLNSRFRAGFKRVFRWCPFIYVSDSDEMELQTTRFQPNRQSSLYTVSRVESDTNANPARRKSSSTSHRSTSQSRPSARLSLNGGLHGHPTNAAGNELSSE
# [1] = system: TACR3 mRNA expression in grass carp pituitary cells; experiment: TACR3 mRNA expression (qPCR) in grass carp pituitary cells; format: cell-based, grass carp (Ctenopharyngodon idellus); conditions: for effect on IGF-I-induced TACR3 mRNA expression: 24 h cotreatment with IGF-I (10 nM), inhibitors 10 µM, wortmannin 1 µM, rapamycin 20 nM; for TACR3 mRNA expression, time course: 100 nM, from 1 h to 24 h (Figure 3B); for TACR3 mRNA expression, dose-dependence: 24-h incubation, 0.01–100 nM (Figure 3C)
# Description: (§1) Grass carp pituitary cells prepared by the trypsin/DNase digestion method were seeded in 24-well plates at ~2.5 × 10^6 cells/mL/well. On the following day, drug treatment was initiated by replacing the old medium with a testing medium with the appropriate levels of test substances, and the cells were then allowed to incubate at 28 °C for the duration as indicated. After drug treatment, total RNA was extracted from individual wells and reversely transcribed as above. The RT samples obtained were subjected to qPCR using a LightCycler SYBR Green I Kit (Roche, Stockholm, Sweden) with the primers mentioned above. In these studies, serial dilutions of plasmid DNA containing the ORF of SLα (GeneBank no.: EF372074) and TACR3 (GenBank no: JQ254913) cDNA were used as the standards for data calibration. Parallel real-time PCR measurement of β-actin was also conducted in individual experiments to serve as the internal control.
# (§2) For real-time PCR of SLα and TACR3 mRNA measurement, standard curves with a dynamic range of ≥10^5 and correlation coefficient of ≥0.95 were used for data calibration with the RotorGene-Q software 1.7 (Qiagen) under unsupervised mode. SLα and TACR3 mRNA data were normalized with the β-actin transcript level and then were transformed as a percentage of the mean value in the control group without drug treatment (as “%Ctrl”). For the calcium bioluminescence signals and raw data obtained from luciferase reporter assays, the luminescence signals or luciferase activity was expressed as “relative luminescence unit (RLU)” registered by the fluorescence plate reader. For individual samples of the luciferase reporter assay, the firefly luciferase activity detected was routinely normalized against Renilla Luciferase activity expressed in the same well and expressed as the luciferase activity ration (as “Luc Ratio”). For receptor binding assay, specific binding of FAM-NKBa was measured in terms of “Arbitrary Fluorescence Unit (AFU)”. The six replicates presented (expressed as Mean ± SEM) were pooled results from two individual experiments prior to statistical analysis; all data were tested for normality of distribution using the Shapiro–Wilk normality test. Then, one-way ANOVA and two-way ANOVA were used to test the significant difference according to different experiment groups. The differences between groups were considered as significant at P < 0.05 (“*”) or highly significant at P < 0.01 (“**”).
# [2] = system: SLα mRNA expression in grass carp pituitary cells; experiment: SLα mRNA expression (qPCR) in grass carp pituitary cells; format: cell-based, grass carp (Ctenopharyngodon idellus); conditions: for SLα mRNA levels, activator alone: static incubation for 24 h, 8Br.cAMP 10 µM, forskolin 1 µM, Dic8 100 µM, TPA 10 µM, A23187 100 nM, BayK8644 100 nM (Figure 5D); for enhancement of the stimulatory effects of TAC3 gene products on SLα mRNA expression: IGF-I/-II cotreatment; for effect on SLα mRNA expression induced by IGF-I or senktide treatment alone: senktide 1 µM, IGF-I 100 nM; for effect on SLα mRNA expression induced by IGF-I or senktide treatment alone / effect on the synergistic effect on SLα mRNA expression caused by IGF-I and senktide cotreatment: inhibitors 10 µM, 2-APB 100 µM, calmidazolium 1 µM (Figure 5A–C); for effect on the synergistic effect on SLα mRNA expression caused by IGF-I and senktide cotreatment: senktide (1 µM) + IGF-I (100 nM)
# Description: as §1, §2
molecule,measurement,setting,value
"GR64349: TACR2-specific agonist (NK2R agonist, Tocris)",IC50,grass carp TACR3,> 10 µM
COc1cc([C@@H]2c3cc4c(cc3[C@H](O)[C@H]3COC(=O)[C@@H]23)OCO4)cc(OC)c1OC [PPP],effect on IGF-I-induced TACR3 mRNA expression,[1],partially inhibited
COC(=O)C1=C(C)NC(C)=C([N+](=O)[O-])C1c1ccccc1C(F)(F)F (stereo not drawn) [BayK8644],"SLα mRNA levels, activator alone",[2],effective in elevating SLα mRNA levels
Nc1ncnc2c1nc(Br)n2[C@@H]1O[C@@H]2COP(=O)(O)O[C@H]2[C@H]1O [8Br.cAMP],"SLα mRNA levels, activator alone",[2],effective in elevating SLα mRNA levels
COc1ccc(Cl)cc1NC(=O)Nc1cc(C)nc2ccccc12 [PQ401],effect on IGF-I-induced TACR3 mRNA expression,[1],totally abolished
"IGF-I: Human insulin-like growth factor I, purchased from Sigma","TACR3 mRNA expression, time course",[1],significantly stimulate TACR3 mRNA expression
same,"TACR3 mRNA expression, dose-dependence",[1],trigger TACR3 mRNA expression in a concentration-related fashion
same,enhancement of the stimulatory effects of TAC3 gene products on SLα mRNA expression,[2],up to 8 fold increase
same,"SLα mRNA levels, treatment alone, time course","[2]; NKBRPa 1 µM, IGF-I 100 nM (Figure 4A)",induce SLα mRNA levels
same,NKBRPa-induced SLα transcript level enhanced by IGF-I cotreatment,"[2]; NKBRPa (1 µM) + IGF-I (100 nM), especially after 12–24 h",up to 10 folds basal
CN([C@@H](Cc1ccc(OS(=O)(=O)c2cccc3cnccc23)cc1)C(=O)N1CCN(c2ccccc2)CC1)S(=O)(=O)c1cccc2cnccc12 [KN62],effect on SLα mRNA expression induced by IGF-I or senktide treatment alone,[2],attenuated
same,effect on the synergistic effect on SLα mRNA expression caused by IGF-I and senktide cotreatment,[2],notably suppressed
CCCCCCCC(=O)OCC(CO)OC(=O)CCCCCCC (stereo not drawn) [Dic8],"SLα mRNA levels, activator alone",[2],effective in elevating SLα mRNA levels
C=C[C@@]1(C)CC(=O)[C@]2(O)[C@@]3(C)[C@@H](O)CCC(C)(C)[C@@H]3[C@H](O)[C@H](OC(C)=O)[C@@]2(C)O1 [forskolin],"SLα mRNA levels, activator alone",[2],effective in elevating SLα mRNA levels
CNc1ccc2oc(C[C@H]3O[C@@]4(CC[C@H]3C)O[C@H]([C@H](C)C(=O)c3ccc[nH]3)[C@H](C)C[C@H]4C)nc2c1C(=O)O [A23187],"SLα mRNA levels, activator alone",[2],effective in elevating SLα mRNA levels
COC[C@H]1OC(=O)c2coc3c2[C@@]1(C)C1=C(C3=O)[C@@H]2CCC(=O)[C@@]2(C)C[C@H]1OC(C)=O [wortmannin],effect on IGF-I-induced TACR3 mRNA expression,[1],notably suppressed
"insulin: Human insulin, purchased from Sigma","TACR3 mRNA expression, dose-dependence",[1],not mimicked
"IGF-II: Human insulin-like growth factor II, purchased from Sigma","TACR3 mRNA expression, time course",[1],significantly stimulate TACR3 mRNA expression
same,"TACR3 mRNA expression, dose-dependence",[1],trigger TACR3 mRNA expression in a concentration-related fashion
same,enhancement of the stimulatory effects of TAC3 gene products on SLα mRNA expression,[2],up to 8 fold increase
CC[C@H](NC(=O)c1c(C)c(-c2ccccc2)nc2ccccc12)c1ccccc1 [SB222200],effect on the potentiating effect induced by IGF-I + NKBRPa on SLα transcript expression,"[2]; antagonist 10 µM, IGF-I (100 nM) + NKBRPa (1 µM) (Figure 4F)",markedly reduced
same,effect on IGF-I- or NKBRPa-induced SLα transcript expression,"[2]; antagonist 10 µM, NKBRPa 1 µM, IGF-I 100 nM (Figure 4F)",suppress
COc1ccc2c(c1)CC[C@@H]1[C@@H]2CC[C@]2(C)[C@@H](NCCCCCCN3C(=O)C=CC3=O)CC[C@@H]12 [U73122],effect on SLα mRNA expression induced by IGF-I or senktide treatment alone,[2],attenuated
same,effect on the synergistic effect on SLα mRNA expression caused by IGF-I and senktide cotreatment,[2],notably suppressed
COC(=O)C1=C(C)NC(C)=C(C(=O)OC)C1c1ccccc1[N+](=O)[O-] [nifedipine],effect on SLα mRNA expression induced by IGF-I or senktide treatment alone,[2],attenuated
same,effect on the synergistic effect on SLα mRNA expression caused by IGF-I and senktide cotreatment,[2],notably suppressed
Cl.c1ccc(C2CCCC2NC2=NCCCCCCCCCCC2)cc1 (stereo not drawn) [MDL12330A],effect on SLα mRNA expression induced by IGF-I or senktide treatment alone,[2],attenuated
same,effect on the synergistic effect on SLα mRNA expression caused by IGF-I and senktide cotreatment,[2],notably suppressed
CCCCCCCCCCCCCC(=O)O[C@@H]1[C@@H](C)[C@@]2(O)[C@@H](C=C(CO)C[C@]3(O)C(=O)C(C)=C[C@@H]23)[C@@H]2C(C)(C)[C@]12OC(C)=O [TPA],"SLα mRNA levels, activator alone",[2],effective in elevating SLα mRNA levels
CO[C@H]1C[C@@H]2CC[C@@H](C)[C@@](O)(O2)C(=O)C(=O)N2CCCC[C@H]2C(=O)O[C@H]([C@H](C)C[C@@H]2CC[C@@H](O)[C@H](OC)C2)CC(=O)[C@H](C)/C=C(\C)[C@@H](O)[C@@H](OC)C(=O)[C@H](C)C[C@H](C)/C=C/C=C/C=C/1C [rapamycin],effect on IGF-I-induced TACR3 mRNA expression,[1],notably suppressed
Clc1ccc(C(c2ccc(Cl)cc2)n2cc[n+](CC(OCc3ccc(Cl)cc3Cl)c3ccc(Cl)cc3Cl)c2)cc1 (stereo not drawn) [calmidazolium],effect on SLα mRNA expression induced by IGF-I or senktide treatment alone,[2],attenuated
same,effect on the synergistic effect on SLα mRNA expression caused by IGF-I and senktide cotreatment,[2],notably suppressed
O=S(=O)(NCCNC/C=C/c1ccc(Br)cc1)c1cccc2cnccc12 [H89],effect on SLα mRNA expression induced by IGF-I or senktide treatment alone,[2],attenuated
same,effect on the synergistic effect on SLα mRNA expression caused by IGF-I and senktide cotreatment,[2],notably suppressed
CN(C)CCCn1cc(C2=C(c3c[nH]c4ccccc34)C(=O)NC2=O)c2ccccc21 [GF109203X],effect on SLα mRNA expression induced by IGF-I or senktide treatment alone,[2],attenuated
same,effect on the synergistic effect on SLα mRNA expression caused by IGF-I and senktide cotreatment,[2],notably suppressed
O=P(O)(O)C(O)c1ccc2ccccc2c1 (stereo not drawn) [HNMPA],effect on IGF-I-induced TACR3 mRNA expression,[1],not effective
NCCOB(c1ccccc1)c1ccccc1 [2-APB],effect on SLα mRNA expression induced by IGF-I or senktide treatment alone,[2],attenuated
same,effect on the synergistic effect on SLα mRNA expression caused by IGF-I and senktide cotreatment,[2],notably suppressed
